# Test results reported in paper PMC12057357, “Population pharmacokinetics study on nebulized and intravenous administration of polymyxin B in patients with pneumonia caused by multidrug-resistant gram-negative bacteria” (Antimicrobial Agents and Chemotherapy, 2025).
# Bridge positions count the residues as written; N and C are the ends. Square brackets hold non-standard residues; d marks the D form. Peptide text beside a SMILES is read from it. * marks the point of attachment. X1 = CC[C@H](C)CCCCC(=O)*; Dab = NCC[C@H](N)C(=O)O
# Experiments:
# [1] = plasma; cited from earlier work
# From the text: (§1) Monte Carlo simulations were used to determine the probability of target attainment (PTA), aiding in the selection of the optimal dosage regimen. According to consensus guidelines, the fAUC/MIC is the most relevant PK/PD index associated with bacterial killing ([11]). In this study, we evaluated the PTA of fAUC/MIC across different dosage regimens in cases of pathogenic infection with varying MIC values to better understand the optimal treatment approach. The preclinical data on PMB are limited, and its in vitro activities are similar to those of colistin ([11], [27]). Consequently, some data ...
# [2] = Population pharmacokinetic model of PMB in plasma and ELF of patients with MDR-GNB pneumonia; type: in vivo, human
# Procedure: This was a single-center, prospective study conducted between January 2022 and October 2024 at Fujian Medical University Union Hospital. […] Patients with severe bronchoconstriction, refractory hypoxemia, pregnancy, or those undergoing continuous renal replacement therapy were excluded.
# IV PMB was administered according to the manufacturer’s instructions: a loading dose of 100–150 mg ([…]) followed by maintenance doses of 40–75 mg every 12 h, with an infusion time of approximately 1 h. The decision to administer PMB and its dosing regimen was made by the medical team. Concurrently, selected patients received nebulized PMB at a dose of 25 mg dissolved in 5 mL of half-normal sterile water for injection every 12 h via vibration mesh nebulizer or jet nebulizer over 15 min. Eligible patients received nebulized PMB for 3 days for the treatment of pneumonia. During nebulization, ventilation was performed at a constant flow, targeting an inspiration-to-expiration ratio of 0.5. The respiratory rate was set at 18 breaths/min; the tidal volume was set at 8 mL/kg; and the positive end-expiratory pressure was set at 6 cmH2O.
# For all patients, when the PMB concentration in the plasma and lungs reached a steady state (after at least four doses), one to six samples were collected into EDTA tubes at the following time points: 0 h before administration and 1, 2, 4, 6, 8, and 12 h after administration. The plasma and bronchoalveolar lavage (BAL) fluid samples for drug assays were centrifuged at 12,000 rpm for 5 min. The supernatant was then collected and stored at −80°C until analysis.
# ELF is obtained through BAL. This procedure involves inserting and wedging a fiberoptic bronchoscope into a subsegment of the middle or lower lung lobe. Before performing BAL, the patient’s CT scan is reviewed to select the affected lung segment for lavage. The lavage is performed at the same location using a 0.9% saline solution. The aspirate from the first lavage is usually collected separately and discarded due to potential severe contamination with cells from the proximal airway. Subsequent recovered aspirates are combined, and their volume is measured and recorded. The remaining volume of BAL fluid is immediately centrifuged to separate the supernatant and the cell pellet. Samples used for measuring urea and drug concentrations in the supernatant are collected and frozen until analysis. The concentration of PMB in ELF can be determined using urea as an endogenous biomarker ([4], [8]). Urea concentration in plasma and ELF is typically the same because urea is […], has a low molecular weight, and can rapidly diffuse to establish equilibrium across the capillary-alveolar membrane. By measuring the urea concentration in both BAL fluid and plasma, the dilution factor can be determined, allowing for the calculation of the actual drug concentration in ELF (Eq.1):
# (1) CELF,PMB=CBAL, PMB×Cplasma,urea /CBAL,urea.
# As polymyxin B1 and B2 structures, molecular weights, pharmacological activities, and PK properties were […], their plasma concentrations were summed to obtain total PMB concentrations ([24]). Concentrations of PMB were determined by a validated liquid chromatography–tandem mass spectrometry assay with minor modifications ([25]). […] For plasma, intra- and interday accuracies ranged from 80.6% to 114.9%, with a coefficient of variation (CV) of 2.6%–14.8%. For BAL fluid, accuracy ranged from 82.3% to 114.3%, with a CV of 3.4%–13.7%. All sample concentrations exceeded the lower limit of quantification (LLOQ).
# PopPK analyses were conducted using a non-linear mixed-effect modeling program, NONMEM, version 7.5 (Icon Development Solutions, USA). Model development utilized first-order conditional estimation to assess the interaction between patient variability and residual variability. One- or two-compartment structural models were evaluated for both ELF and plasma drug exposure to establish the basic model that best fitted the original data. […]
# [3] = tested on: extensively drug-resistant GNB; conditions: cited from earlier work
# Procedure: While an IV loading dose enhances early plasma exposure of PMB, it has minimal impact on early ELF exposure. […] Currently, the dosing regimen for PMB nebulization in clinical practice is predominantly empirical, typically involving doses of 25 or 50 mg administered twice daily ([19][–][21]). In a PK analysis of 105 patients ...
# [4] = cited from earlier work
# From the text: The issue of dosage adjustments based on renal function has been a contentious topic ...
# [5] = tested on: Pseudomonas aeruginosa (ATCC 27853, PAO1, and FADDI-PA022); conditions: cited from earlier work
# From the text: as §1, with “[…] Such high fAUC/MIC” for “Consequently, some data”
# [6] = tested on: Acinetobacter baumannii (ATCC 19606, 248–01-C.248, and N-16870.213); conditions: cited from earlier work
# [7] = tested on: human alveolar epithelial A549 cells; parameters: method as in PMID 34228550, PMID 28416543; conditions: cited from earlier work
# Pseudomonas aeruginosa = tested on: Pseudomonas aeruginosa; parameters: method as in PMID 28031207; conditions: ELF; cited from earlier work
# [8] = bootstrap median, 1,000 resampled data sets
molecule,measurement,setting,value
"CC[C@H](C)CCCCC(=O)N[C@@H](CCN)C(=O)N[C@H](C(=O)N[C@@H](CCN)C(=O)N[C@H]1CCNC(=O)[C@H]([C@@H](C)O)NC(=O)[C@H](CCN)NC(=O)[C@H](CCN)NC(=O)[C@H](CC(C)C)NC(=O)[C@@H](Cc2ccccc2)NC(=O)[C@H](CCN)NC1=O)[C@@H](C)O [PMB, Polymyxin B] (X1-[Dab]T[Dab][Dab][Dab][dF]L[Dab][Dab]T; lactam 4-C)",unbound fraction,[1],0.42
same,AGE on V3 (covariate effect),[2]; [8],1.28
same,ALB on CL3 (covariate effect),[2]; [8],−0.894
same,"CL1, central compartment clearance of plasma",[2]; [8],1.39 L/h
same,"CL2, intercompartmental clearance of plasma",[2]; [8],13.1 L/h
same,"CL3, central compartment clearance of ELF",[2]; [8],0.186 L/h
same,"CL4, intercompartmental clearance of ELF",[2]; [8],3.44 L/h
same,"F, bioavailability of nebulization",[2]; [8],0.556
same,"Q, intercompartmental clearance between compartments 1 and 3",[2]; [8],0.03 L/h
same,"V1, central compartment distribution volume of plasma",[2]; [8],27.59 L
same,"V2, intercompartmental (peripheral) distribution volume of plasma",[2]; [8],17.11 L
same,"V3, central compartment distribution volume of ELF",[2]; [8],0.896 L
same,"V4, intercompartmental (peripheral) distribution volume of ELF",[2]; [8],4.33 L
same,"AUC24h, ELF","[2]; epithelial lining fluid, 76 patients, median (interquartile range), nebulized PMB 25 mg q12h alone or with IV PMB, LC-MS/MS, urea-corrected BAL",52.5 (35.3–102.8) mg·h/L
same,AGE on V3 (covariate effect),[2]; final PopPK model estimate,1.28
same,ALB on CL3 (covariate effect),[2]; final PopPK model estimate,−0.893
same,"CL2, intercompartmental clearance of plasma",[2]; final PopPK model estimate,13.11 L/h
same,"CL3, central compartment clearance of ELF",[2]; final PopPK model estimate,0.186 L/h
same,"CL4, intercompartmental clearance of ELF",[2]; final PopPK model estimate,3.44 L/h
same,"F, bioavailability of nebulization (fraction of drug reaching the lungs)",[2]; final PopPK model estimate,0.557
same,"Q, intercompartmental clearance between compartments 1 and 3 (plasma and ELF)",[2]; final PopPK model estimate,0.03 L/h
same,"V1, central compartment distribution volume of plasma",[2]; final PopPK model estimate,27.6 L
same,"V2, intercompartmental (peripheral) distribution volume of plasma",[2]; final PopPK model estimate,17.1 L
same,"V3, central compartment distribution volume of ELF",[2]; final PopPK model estimate,0.896 L
same,"V4, intercompartmental (peripheral) distribution volume of ELF",[2]; final PopPK model estimate,4.35 L
same,clearance,"[2]; human, plasma, final PopPK model estimate, NONMEM, 76 patients, steady state, read-out: CL1, central compartment clearance of plasma (converted)",23.2 mL/min
same,"AUC24h, plasma","[2]; plasma, median (interquartile range), nebulized PMB alone or with IV PMB, LC-MS/MS",35.0 (22.0–54.2) mg·h/L
same,"bacterial clearance time, inhalation group vs IV group",[3]; P = 0.002,significantly shorter
same,"risk of acute kidney injury, inhalation group vs IV group",[3]; P = 0.025,trend toward a reduced risk
same,average urine recovery rate,[4],23.56%
same,CL1,[4]; range across previous PMB two-compartment models,1.19 to 2.63 L/h
same,CL2,[4]; range across previous studies,1.98 to 13.83 L/h
same,V1,[4]; range across previous studies,6.35 to 33.77 L
same,V2,[4]; range across previous studies,7.92 to 78.2 L
same,urinary recovery rate,"[4]; range, ref 39 (Sandri et al.)",0.98% to 17.4%
same,AUC/MIC targets in ELF associated with antibacterial activity,[5],"1,326 to 1,506"
same,AUC/MIC targets in ELF associated with antibacterial activity,[6],326 to 989
same,effect on human alveolar epithelial A549 cells,[7],"disrupt redox balance, mitochondrial beta-oxidation, and membrane lipid biosynthesis"
colistin,fAUCELF/MIC targets,Pseudomonas aeruginosa,"684–1,050"
